Experimental data as given in ChEMBL document CHEMBL1201862, “PubChem BioAssay data set” (2004).
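Exposure lasted 48 hours, with cells grown in 96-well plates and compounds tested at five concentrations. The concentration for 50% growth inhibition is given as GI50.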 Activity calls are given as the source filed them. No stated cut-off is given here; in the data, active = GI50 up to about 1.1 µM and inactive = higher.

Key:
Experiment in all cases: NCI tumour cell line growth inhibition, 48 h
[1] = tested on: NCI/ADR-RES
[2] = tested on: DU-145
[3] = tested on: T47D
[4] = tested on: NCI-H460
[5] = tested on: LOX IMVI
[6] = tested on: UO-31
[7] = tested on: TK-10
[8] = tested on: NCI-H226
[9] = tested on: BT-549
[10] = tested on: MDA-N
[11] = tested on: SK-OV-3
[12] = tested on: CAKI-1
[13] = tested on: KM12
[14] = tested on: SW-620
[15] = tested on: HT-29
[16] = tested on: OVCAR-3
[17] = tested on: SNB-75
[18] = tested on: Malme-3M
[19] = tested on: OVCAR-4
[20] = tested on: OVCAR-8
[21] = tested on: HL-60
[22] = tested on: MDA-MB-435
[23] = tested on: 786-0
[24] = tested on: A549
[25] = tested on: NCI-H23
[26] = tested on: OVCAR-5
[27] = tested on: MDA-MB-231
[28] = tested on: UACC-62
[29] = tested on: K562
[30] = tested on: MOLT-4
[31] = tested on: HCT-116
[32] = tested on: SNB-19
[33] = tested on: Hs-578T
[34] = tested on: U-251
[35] = tested on: SF-268
[36] = tested on: SR
[37] = tested on: SK-MEL-28
[38] = tested on: RPMI-8226
[39] = tested on: SF-295
[40] = tested on: IGROV-1
[41] = tested on: A498
[42] = tested on: SN12C
[43] = tested on: EKVX
[44] = tested on: COLO 205
[45] = tested on: UACC-257
[46] = tested on: PC-3
[47] = tested on: M14
[48] = tested on: ACHN
[49] = tested on: SF-539
[50] = tested on: MCF7
[51] = tested on: HOP-62
[52] = tested on: HCT-15
[53] = tested on: SK-MEL-2
[54] = tested on: RXF 393
[55] = tested on: CCRF-CEM
[56] = tested on: HOP-92
[57] = tested on: SK-MEL-5
[58] = tested on: NCI-H522
[59] = tested on: HCC 2998

Measured: GI50

Nc1nc(N)nc(CCCCc2nc(N)nc(N)n2)n1
> 100 µM: [52]
inactive: [1] > 100 µM | [2] > 100 µM | [3] > 100 µM | [4] > 100 µM | [5] > 100 µM | [6] > 100 µM | [7] > 100 µM | [8] > 100 µM | [9] > 100 µM | [10] > 100 µM | [11] > 100 µM | [12] > 100 µM | [13] > 100 µM | [14] > 100 µM | [15] > 100 µM | [16] > 100 µM | [17] > 100 µM | [18] > 100 µM | [19] > 100 µM | [20] > 100 µM | [21] > 100 µM | [22] > 100 µM | [23] > 100 µM | [24] > 100 µM | [25] > 100 µM | [26] > 100 µM | [27] > 100 µM | [28] > 100 µM | [29] > 100 µM | [30] > 100 µM | [31] > 100 µM | [32] > 100 µM | [33] > 100 µM | [34] > 100 µM | [35] > 100 µM | [36] > 100 µM | [37] > 100 µM | [38] > 100 µM | [39] > 100 µM | [40] > 100 µM | [41] > 100 µM | [42] > 100 µM | [43] > 100 µM | [44] > 100 µM | [45] > 100 µM | [46] > 100 µM | [47] > 100 µM | [48] > 100 µM | [49] > 100 µM | [50] > 100 µM | [51] > 100 µM | [53] > 100 µM | [54] > 100 µM | [55] > 100 µM | [56] > 100 µM | [57] > 100 µM | [58] > 100 µM

O=c1c2c3ccccc3[nH]c2c2cccc3c2n1CCC3
inactive: [1] 50 µM | [2] > 100 µM | [3] 61 µM | [4] 34.8 µM | [6] > 10 µM | [7] 68.9 µM | [8] 50.6 µM | [9] 29.6 µM | [10] 66.5 µM | [59] 29.2 µM | [11] 83.6 µM | [13] 33.9 µM | [14] 43.3 µM | [15] 29.6 µM | [16] 30.6 µM | [17] 50.4 µM | [18] 22 µM | [20] 50.9 µM | [22] 54.6 µM | [23] 4.27 µM | [24] 48.1 µM | [25] 45.8 µM | [26] 66.7 µM | [27] 28.3 µM | [28] 36.5 µM | [29] 32.3 µM | [30] 25.5 µM | [31] 36.6 µM | [32] > 100 µM | [33] 21.2 µM | [34] 36.1 µM | [35] 33 µM | [36] 25.9 µM | [37] 41.8 µM | [39] 37.7 µM | [40] 84.5 µM | [41] 20.7 µM | [42] 53.1 µM | [43] 20.6 µM | [44] 54 µM | [45] 83 µM | [46] 26.8 µM | [47] 60.5 µM | [48] 41.1 µM | [49] 40.1 µM | [50] 35.1 µM | [51] 54.1 µM | [54] 29.4 µM | [55] 30.5 µM | [56] 40.2 µM | [57] 17.6 µM
32.4 µM: [52]
